The source made the active and inactive calls.
Experiments:
[1] = biological target: Polyadenylate-binding protein 1 (Homo sapiens, UniProt P11940); test: blockers of PABP interaction with poly(A) – biochemical, fluorescence polarization, […] (AID 2014)
[2] = biological target: Eukaryotic translation initiation factor 4H (Homo sapiens, UniProt Q15056); test: eIF4H binding inhibition – biochemical, uHTS, fluorescence polarization, translation initiation inhibitor project, primary screen (AID 2012)
[3] = biological target: T1, Carboxy-terminal domain RNA polymerase II polypeptide A small phosphatase 1 (Homo sapiens, UniProt Q9GZU7); test: CTDSP1 inhibitors, concentration-response, biochemical, absorbance readout, ultra-high-throughput screen actives (AID 540297); format: functional
T1 sequence (Q9GZU7 whole entry): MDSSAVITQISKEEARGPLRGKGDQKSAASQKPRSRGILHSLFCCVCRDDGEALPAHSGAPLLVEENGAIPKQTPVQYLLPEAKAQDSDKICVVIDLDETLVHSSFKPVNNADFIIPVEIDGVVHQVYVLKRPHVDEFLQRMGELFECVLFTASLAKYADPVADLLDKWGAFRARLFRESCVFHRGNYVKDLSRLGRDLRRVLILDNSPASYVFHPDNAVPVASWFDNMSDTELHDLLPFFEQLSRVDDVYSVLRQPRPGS

Coagulation factor XII = biological target: T2, Coagulation factor XII (Homo sapiens, UniProt P00748); format: functional;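 also: activated factor XIIa alpha cleaving a fluorogenic AMC peptide substrate; inhibitor potency from loss of enzyme activity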
T2 sequence (P00748 whole entry): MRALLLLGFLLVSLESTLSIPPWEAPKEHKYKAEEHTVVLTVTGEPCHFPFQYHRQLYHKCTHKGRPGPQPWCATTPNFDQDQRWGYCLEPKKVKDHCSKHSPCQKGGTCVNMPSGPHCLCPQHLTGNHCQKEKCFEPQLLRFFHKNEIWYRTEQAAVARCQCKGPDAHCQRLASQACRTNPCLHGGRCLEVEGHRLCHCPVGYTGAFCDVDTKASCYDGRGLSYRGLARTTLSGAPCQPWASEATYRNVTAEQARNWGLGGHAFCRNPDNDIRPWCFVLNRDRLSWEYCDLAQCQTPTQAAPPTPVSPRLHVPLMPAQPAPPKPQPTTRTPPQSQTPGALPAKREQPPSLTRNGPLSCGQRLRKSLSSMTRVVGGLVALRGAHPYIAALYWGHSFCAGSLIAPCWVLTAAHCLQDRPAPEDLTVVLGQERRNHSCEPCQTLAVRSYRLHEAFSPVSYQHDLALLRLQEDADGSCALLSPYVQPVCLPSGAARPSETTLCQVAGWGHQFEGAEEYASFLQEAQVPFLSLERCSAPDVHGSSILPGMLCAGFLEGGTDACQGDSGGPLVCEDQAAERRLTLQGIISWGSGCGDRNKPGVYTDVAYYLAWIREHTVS

Bcl-2-like protein 10 = Bcl-2-like protein 10 (Homo sapiens, UniProt Q9HD36); test: Bcl-B/TR3 peptide binding disruption – biochemical, fluorescence polarization, FITC-TR3 peptide, selectivity assay for Bfl-1 inhibitor project, primary screen (AID 748);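 also: fluorescence polarization from a fluorescein-labelled TR3 peptide binding purified Bcl-B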
Sequence of Bcl-2-like protein 10 (Q9HD36 whole entry): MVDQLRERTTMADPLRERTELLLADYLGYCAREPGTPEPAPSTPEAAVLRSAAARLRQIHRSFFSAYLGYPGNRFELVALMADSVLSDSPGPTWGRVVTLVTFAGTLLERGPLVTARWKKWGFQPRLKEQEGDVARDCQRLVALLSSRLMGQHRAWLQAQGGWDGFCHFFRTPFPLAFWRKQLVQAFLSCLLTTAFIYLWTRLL

[4] = biological target: Acyl-homoserine lactone acylase PvdQ (Pseudomonas aeruginosa (strain LESB58), UniProt Q9I194); test: PvdQ acylase enzyme activity blockers – biochemical, fluorescence, plate reader and imaging, cherry-picks, dose response (AID 493231)
Sequence of Acyl-homoserine lactone acylase PvdQ (Q9I194 24-193 limits assumed): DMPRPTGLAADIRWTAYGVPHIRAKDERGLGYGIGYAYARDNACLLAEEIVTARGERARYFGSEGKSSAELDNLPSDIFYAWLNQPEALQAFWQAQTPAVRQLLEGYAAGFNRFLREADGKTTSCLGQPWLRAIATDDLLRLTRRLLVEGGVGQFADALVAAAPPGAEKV
Sequence of Acyl-homoserine lactone acylase PvdQ (Q9I194 217-762 limits assumed): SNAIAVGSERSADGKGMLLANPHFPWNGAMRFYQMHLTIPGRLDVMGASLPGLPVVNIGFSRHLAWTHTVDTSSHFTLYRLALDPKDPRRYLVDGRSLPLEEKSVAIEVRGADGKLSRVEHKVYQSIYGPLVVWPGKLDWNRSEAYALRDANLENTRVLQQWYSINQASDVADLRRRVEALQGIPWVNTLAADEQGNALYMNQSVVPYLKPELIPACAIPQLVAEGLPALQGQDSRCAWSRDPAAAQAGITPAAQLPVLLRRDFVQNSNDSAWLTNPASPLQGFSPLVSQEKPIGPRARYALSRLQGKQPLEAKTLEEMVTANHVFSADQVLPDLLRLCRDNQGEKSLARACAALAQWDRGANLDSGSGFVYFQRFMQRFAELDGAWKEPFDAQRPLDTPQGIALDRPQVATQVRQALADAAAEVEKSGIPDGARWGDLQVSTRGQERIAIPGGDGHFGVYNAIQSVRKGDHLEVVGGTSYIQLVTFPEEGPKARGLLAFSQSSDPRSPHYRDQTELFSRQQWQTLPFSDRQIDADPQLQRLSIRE

SUMO-activating enzyme [5] = biological target: T3, SUMO-activating enzyme (Homo sapiens, UniProt Q9UBT2); test: blockers of SAE1/SAE2–UBC9 SUMO transfer – biochemical, HTRF, uHTS, primary screen (AID 2006); format: protein-complex assay
T3 sequence (Q9UBE0 whole entry): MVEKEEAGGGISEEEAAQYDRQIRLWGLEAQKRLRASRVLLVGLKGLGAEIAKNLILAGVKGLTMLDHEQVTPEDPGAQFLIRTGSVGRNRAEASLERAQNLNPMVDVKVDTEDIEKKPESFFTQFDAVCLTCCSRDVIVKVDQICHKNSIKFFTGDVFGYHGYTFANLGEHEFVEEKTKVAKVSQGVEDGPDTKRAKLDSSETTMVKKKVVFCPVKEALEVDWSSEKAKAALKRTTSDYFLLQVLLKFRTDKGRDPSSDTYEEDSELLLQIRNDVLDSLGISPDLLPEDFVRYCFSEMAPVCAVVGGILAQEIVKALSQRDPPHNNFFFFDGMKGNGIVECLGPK
T3 sequence (Q9UBT2 whole entry): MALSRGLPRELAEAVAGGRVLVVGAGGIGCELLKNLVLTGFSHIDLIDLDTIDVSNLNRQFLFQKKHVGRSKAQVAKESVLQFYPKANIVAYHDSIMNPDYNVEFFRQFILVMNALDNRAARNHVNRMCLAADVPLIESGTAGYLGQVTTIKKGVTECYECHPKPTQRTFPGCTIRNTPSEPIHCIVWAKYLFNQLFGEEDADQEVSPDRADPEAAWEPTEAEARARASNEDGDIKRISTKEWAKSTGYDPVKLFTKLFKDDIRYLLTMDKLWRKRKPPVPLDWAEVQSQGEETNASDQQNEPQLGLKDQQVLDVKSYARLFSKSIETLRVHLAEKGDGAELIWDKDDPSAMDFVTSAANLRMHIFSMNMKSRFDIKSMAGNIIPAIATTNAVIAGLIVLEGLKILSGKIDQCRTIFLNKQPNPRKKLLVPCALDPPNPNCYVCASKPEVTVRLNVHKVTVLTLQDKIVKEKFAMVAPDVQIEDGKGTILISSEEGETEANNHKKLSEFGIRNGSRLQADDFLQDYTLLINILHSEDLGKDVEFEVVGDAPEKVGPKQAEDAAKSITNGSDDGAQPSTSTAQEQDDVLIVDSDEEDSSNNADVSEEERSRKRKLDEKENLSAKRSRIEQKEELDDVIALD

SUMO-activating enzyme [6] = biological target: T3, SUMO-activating enzyme; test: blockers of UBC9-mediated SUMO conjugation – biochemical, AlphaScreen, SUMOylation inhibitor project, confirmation (AID 2018); format: functional
[7] = Trypanosoma cruzi growth suppression in host cells – NIH3T3 host cells, beta-gal luminescence, confirmation (AID 2044); format: functional, cell-based;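 also: intracellular parasites grown in NIH/3T3 mouse fibroblasts as host cells; luminescent beta-galactosidase reporter signal from transgenic T. cruzi replicating inside host cells; inhibitors lower the luminescence signal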
cells = format: functional
[8] = Vero E6 cell cytotoxicity, dose response, cytotoxicity control for non-replicating M. tuberculosis project, secondary assay (AID 492998); format: functional, VeroE6; details: Vero C1008
[9] = NIH3T3 cell viability loss – ATP luminescence, mouse fibroblasts, counter-screen, dose response (AID 2010); format: functional, cell-based;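 also: cells exposed to compound for about 90 hours before reading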
[10] = THP-1 cell cytotoxicity, dose response, cytotoxicity control for non-replicating M. tuberculosis project (AID 489025); format: functional
[11] = biological target: T4, Microphthalmia-associated transcription factor (Homo sapiens, UniProt O75030); test: reducers of TRPM1 reporter luminescence, concentration series – cell-based, SK-MEL-5, cherry-picked, set 3, MITF inhibitor project, dose response (AID 493073); format: functional;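 also: SK-MEL-5 melanoma cells with luciferase driven by the MITF target TRPM1 promoter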
T4 sequence (O75030 whole entry): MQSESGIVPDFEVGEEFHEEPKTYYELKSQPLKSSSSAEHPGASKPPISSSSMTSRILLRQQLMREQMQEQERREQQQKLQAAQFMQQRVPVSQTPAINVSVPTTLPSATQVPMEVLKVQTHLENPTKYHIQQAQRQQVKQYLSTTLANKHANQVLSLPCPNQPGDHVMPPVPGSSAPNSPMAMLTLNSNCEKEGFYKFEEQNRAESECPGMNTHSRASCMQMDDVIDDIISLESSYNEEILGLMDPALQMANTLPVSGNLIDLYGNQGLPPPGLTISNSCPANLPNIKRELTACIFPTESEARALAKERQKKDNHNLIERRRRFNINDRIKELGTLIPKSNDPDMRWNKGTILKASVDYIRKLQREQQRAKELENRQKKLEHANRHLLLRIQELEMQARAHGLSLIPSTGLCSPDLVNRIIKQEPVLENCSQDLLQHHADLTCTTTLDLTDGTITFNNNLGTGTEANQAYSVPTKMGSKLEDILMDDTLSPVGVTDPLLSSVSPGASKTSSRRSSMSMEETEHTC

[12] = HepG2 cell cytotoxicity, dose response, cytotoxicity control for non-replicating M. tuberculosis project (AID 489018); format: functional; details: Mycobacterium tuberculosis
Escherichia coli = test: microbe, parasite or virus in culture
INS1 = test: INS-1E survival protection against cytokine death – cell-based, luminescence, retest, dose response (AID 449756); format: functional; details: Rattus norvegicus;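 also: cell death triggered by IL-1 beta plus TNF-alpha plus IFN-gamma mixture; protective hits raise ATP signal compared with cytokine alone wells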
[13] = biological target: T5, Heat shock factor protein 1 (Mus musculus, UniProt P38532); test: decrease of HSF1-responsive luciferase luminescence – cell-based, NIH3T3, dose retest, confirmation (AID 2382); format: functional;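 also: NIH3T3 fibroblasts with HSF1-driven luciferase reporter stressed by proteasome inhibitor MG132; luminescence from HSF1-driven luciferase expression after 8 hours of MG132 stress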
T5 sequence (P38532 whole entry): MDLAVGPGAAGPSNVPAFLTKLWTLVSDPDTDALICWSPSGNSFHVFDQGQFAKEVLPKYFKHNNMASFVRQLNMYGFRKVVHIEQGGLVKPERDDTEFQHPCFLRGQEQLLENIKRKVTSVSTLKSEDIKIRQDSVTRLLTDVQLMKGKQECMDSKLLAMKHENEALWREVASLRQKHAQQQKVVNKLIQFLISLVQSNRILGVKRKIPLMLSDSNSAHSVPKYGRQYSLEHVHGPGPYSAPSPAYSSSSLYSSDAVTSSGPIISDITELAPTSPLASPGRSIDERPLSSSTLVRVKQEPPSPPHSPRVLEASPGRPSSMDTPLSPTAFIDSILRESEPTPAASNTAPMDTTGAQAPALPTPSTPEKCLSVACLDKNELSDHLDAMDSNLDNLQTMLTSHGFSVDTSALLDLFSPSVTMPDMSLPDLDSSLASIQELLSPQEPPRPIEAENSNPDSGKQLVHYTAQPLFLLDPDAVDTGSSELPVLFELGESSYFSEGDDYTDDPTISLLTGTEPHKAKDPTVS

[14] = biological target: T6, Eukaryotic translation initiation factor 2-alpha kinase 3 (Homo sapiens, UniProt Q9NZJ5); test: Dose response cell-based high-throughput screening assay to measure PERK inhibition. [Related pubchem assays: 1416 ]; format: functional
T6 sequence (Q9NZJ5 whole entry): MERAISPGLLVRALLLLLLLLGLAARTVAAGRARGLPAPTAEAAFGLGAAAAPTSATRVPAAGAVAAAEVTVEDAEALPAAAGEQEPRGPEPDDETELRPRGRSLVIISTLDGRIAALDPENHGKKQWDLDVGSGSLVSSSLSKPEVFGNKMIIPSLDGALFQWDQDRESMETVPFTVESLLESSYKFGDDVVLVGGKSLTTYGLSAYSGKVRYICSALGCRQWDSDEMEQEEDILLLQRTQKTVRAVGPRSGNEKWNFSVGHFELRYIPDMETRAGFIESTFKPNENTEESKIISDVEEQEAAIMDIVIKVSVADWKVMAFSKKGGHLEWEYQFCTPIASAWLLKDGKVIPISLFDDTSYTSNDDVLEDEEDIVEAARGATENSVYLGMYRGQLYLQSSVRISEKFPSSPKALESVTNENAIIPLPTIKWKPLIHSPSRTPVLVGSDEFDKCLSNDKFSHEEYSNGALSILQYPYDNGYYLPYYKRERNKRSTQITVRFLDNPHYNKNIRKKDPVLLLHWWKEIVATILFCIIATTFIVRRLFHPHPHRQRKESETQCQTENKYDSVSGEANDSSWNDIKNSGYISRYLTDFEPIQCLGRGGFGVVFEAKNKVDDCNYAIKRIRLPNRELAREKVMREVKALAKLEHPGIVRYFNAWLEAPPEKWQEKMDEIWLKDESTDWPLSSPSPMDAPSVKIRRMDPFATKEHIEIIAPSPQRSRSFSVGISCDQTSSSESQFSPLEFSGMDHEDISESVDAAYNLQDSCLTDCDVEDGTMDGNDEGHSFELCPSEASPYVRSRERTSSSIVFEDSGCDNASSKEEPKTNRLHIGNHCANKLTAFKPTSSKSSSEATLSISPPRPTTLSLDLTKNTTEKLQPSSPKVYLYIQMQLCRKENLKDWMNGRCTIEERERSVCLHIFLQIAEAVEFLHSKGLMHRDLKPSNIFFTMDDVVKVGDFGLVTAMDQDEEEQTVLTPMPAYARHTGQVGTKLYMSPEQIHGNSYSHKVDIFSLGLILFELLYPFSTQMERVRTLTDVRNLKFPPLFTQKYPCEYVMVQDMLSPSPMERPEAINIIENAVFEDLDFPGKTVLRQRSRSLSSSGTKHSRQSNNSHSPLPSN

[15] = biological target: T6, Eukaryotic translation initiation factor 2-alpha kinase 3; test: Counterscreen assay for PERK inhibitors: Dose response cell-based high throughput screening assay to measure inhibition of PERK at 6 hours. [Related pubchem assays: 1522, 1416 ]; format: functional
[16] = Luminescence Cell-Based Dose Response HTS to Identify Inhibitors of 5'UTR Stem-Loop Driven Prion Protein mRNA Translation in H4 Neuroglioblastoma Cells. [Related pubchem assays: 1827 (Project Summary), 1813 (Primary HTS)]; format: functional
[17] = luciferase reporter signal suppression in cells – H4 neuroglioma cells, luminescence, dose response (AID 1990); format: functional, cell-based
[18] = fluconazole-exposed Candida albicans growth modulators – fluorescence, retest, confirmation (AID 2467); format: functional, cell-based
[19] = HEK-293T viability loss after treatment – luminescence, T-cell screen hits, cytotoxicity control for TCR NF-kB inhibitor project, dose response (AID 489026); format: functional, cell-based;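 also: cells exposed to compound about 14 hours before the viability readout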
[20] = alpha-synuclein stem-loop luciferase translation blockers – H4 neuroglioma cells, luminescence, confirmation (AID 1988); format: functional, cell-based
[21] = NIH-3T3 fibroblast cytotoxicity, dose response, cytotoxicity control, cell-based, fluorescence, Alamar Blue, secondary assay (AID 2327); format: functional;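 also: NIH-3T3 mouse fibroblasts cultured with fluconazole at 8 µg/mL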

Sequence of Polyadenylate-binding protein 1 (P11940 whole entry): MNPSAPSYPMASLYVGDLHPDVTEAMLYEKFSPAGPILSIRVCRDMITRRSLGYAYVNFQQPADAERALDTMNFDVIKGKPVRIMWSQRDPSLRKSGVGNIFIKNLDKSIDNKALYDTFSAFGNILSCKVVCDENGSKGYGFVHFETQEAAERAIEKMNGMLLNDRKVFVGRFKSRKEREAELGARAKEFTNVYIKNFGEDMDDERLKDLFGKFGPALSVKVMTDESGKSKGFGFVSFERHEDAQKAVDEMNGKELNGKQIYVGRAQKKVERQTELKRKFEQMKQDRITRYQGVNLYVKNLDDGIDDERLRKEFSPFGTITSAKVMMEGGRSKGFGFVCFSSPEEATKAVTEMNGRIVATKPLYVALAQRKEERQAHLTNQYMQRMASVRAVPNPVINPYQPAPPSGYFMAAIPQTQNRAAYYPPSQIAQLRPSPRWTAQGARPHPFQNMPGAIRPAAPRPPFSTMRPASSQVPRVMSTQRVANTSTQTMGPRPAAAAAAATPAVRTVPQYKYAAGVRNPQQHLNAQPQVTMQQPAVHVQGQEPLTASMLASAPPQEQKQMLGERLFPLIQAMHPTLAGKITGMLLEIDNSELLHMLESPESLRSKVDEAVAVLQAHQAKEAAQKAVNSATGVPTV

SMILES: O=C(N=Nc1c(O)[nH]c2ccccc12)c1cc(-c2cccs2)[nH]n1
- IC50 [1]: 28.8 µM (active)
- IC50 [2]: 11.5 µM (active)

SMILES: C[N+]1(CC2COC3(CCCCC3)O2)CCCCC1 (centres undefined)
- IC50 [1]: 6.05 µM (active)
- IC50 [2]: > 100 µM (inactive)
- IC50 [3]: 8.39 µM (active)

SMILES: Cc1ccc(S(=O)(=O)NCC(=O)OCC(=O)Nc2ncc(Cl)cc2Cl)cc1
- IC50 (Coagulation factor XII): > 50 µM (inactive)
- IC50 (Bcl-2-like protein 10): 71.1 µM (inactive)

SMILES: C[C@]12CCC[C@H](O1)[C@H]([C@@H](O)c1ccccc1)O2
- AC50 [4]: 54 µM (active)

SMILES: CN(C)c1cccc(C(=O)OCc2cc(=O)oc3cc(O)ccc23)c1
- IC50 (SUMO-activating enzyme [5]): 22.6 µM (active)
- IC50 (SUMO-activating enzyme [6]): 5.73 µM (active)
- IC50 (Bcl-2-like protein 10): 62.4 µM (inactive)

SMILES: O=[N+]([O-])c1ccc(/C=N/n2c(CO)nc3ccccc32)s1
- EC50 [7]: 0.568 µM (active)
- IC50 (cells): 1.51 µM (active)
- CC50 [8]: 14.7 µM (active)
- EC50 [9]: 42 µM (active)
- CC50 [10]: 32.4 µM (active)
- AC50 [11]: 1.97 µM (active)
- CC50 [12]: > 20 µM (active)
- AC50 (Escherichia coli): 121 µM (active)
- AC50 (INS1): 4.91 µM (active)

SMILES: Cc1ccccc1CO/N=C/c1[nH]ncc1Br
- EC50 [13]: > 195 µM (not active)
- EC50 [14]: > 55.7 µM (not active)
- EC50 [15]: > 55.7 µM (not active)

SMILES: CCCCCCCCCCn1ccc(=N)cc1
- EC50 [16]: 8.51 µM (active)
- EC50 [17]: 10.3 µM (active)
- EC50 [18]: 0.055 µM (active)
- IC50 [19]: > 80 µM (inactive)
- EC50 [20]: 8.93 µM (active)
- CC50 [8]: 11.4 µM (active)
- EC50 [21]: 22.5 µM (active)
- CC50 [10]: 1.57 µM (active)
- CC50 [12]: 7.25 µM (active)
- AC50 (INS1): 0.471 µM (active)

SMILES: N#CC(c1ccc(F)cc1)c1ccc(C(=O)c2ccccc2)cc1 (centres undefined)
- AC50 [4]: > 100 µM (inactive)

— ChEMBL document CHEMBL1201862, “PubChem BioAssay data set” (2004)
